Columns and labels:
Assay in all cases: KINOMEscan
Format in all cases: binding
Conditions in all cases: 1 μM
[1] = biological target: T1, FLT3-autoinhibited (Homo sapiens, UniProt P36888)
T1 construct: purchased Eurofins DiscoverX Corporation

[2] = biological target: PRKD3 (Homo sapiens, UniProt O94806)
[3] = biological target: T2, CSNK1E (Homo sapiens, UniProt P49674)
T2 construct: purchased Eurofins DiscoverX Corporation

[4] = biological target: CLK3 (Homo sapiens, UniProt P49761)
[5] = biological target: T3, NEK2 (Homo sapiens, UniProt P51955)
T3 construct: purchased Eurofins DiscoverX Corporation

[6] = biological target: T4, MYLK (Homo sapiens, UniProt Q15746)
T4 construct: purchased Eurofins DiscoverX Corporation

[7] = biological target: PRKD2 (Homo sapiens, UniProt Q9BZL6)
[8] = biological target: T5, DMPK (Homo sapiens, UniProt Q09013)
T5 construct: purchased Eurofins DiscoverX Corporation

[9] = biological target: T6, MAPKAPK2 (Homo sapiens, UniProt P49137)
T6 construct: purchased Eurofins DiscoverX Corporation

[10] = biological target: YES (Homo sapiens, UniProt P07947)
[11] = biological target: SNRK (Homo sapiens, UniProt Q9NRH2)
SNRK, sequence (Q9NRH2 whole entry): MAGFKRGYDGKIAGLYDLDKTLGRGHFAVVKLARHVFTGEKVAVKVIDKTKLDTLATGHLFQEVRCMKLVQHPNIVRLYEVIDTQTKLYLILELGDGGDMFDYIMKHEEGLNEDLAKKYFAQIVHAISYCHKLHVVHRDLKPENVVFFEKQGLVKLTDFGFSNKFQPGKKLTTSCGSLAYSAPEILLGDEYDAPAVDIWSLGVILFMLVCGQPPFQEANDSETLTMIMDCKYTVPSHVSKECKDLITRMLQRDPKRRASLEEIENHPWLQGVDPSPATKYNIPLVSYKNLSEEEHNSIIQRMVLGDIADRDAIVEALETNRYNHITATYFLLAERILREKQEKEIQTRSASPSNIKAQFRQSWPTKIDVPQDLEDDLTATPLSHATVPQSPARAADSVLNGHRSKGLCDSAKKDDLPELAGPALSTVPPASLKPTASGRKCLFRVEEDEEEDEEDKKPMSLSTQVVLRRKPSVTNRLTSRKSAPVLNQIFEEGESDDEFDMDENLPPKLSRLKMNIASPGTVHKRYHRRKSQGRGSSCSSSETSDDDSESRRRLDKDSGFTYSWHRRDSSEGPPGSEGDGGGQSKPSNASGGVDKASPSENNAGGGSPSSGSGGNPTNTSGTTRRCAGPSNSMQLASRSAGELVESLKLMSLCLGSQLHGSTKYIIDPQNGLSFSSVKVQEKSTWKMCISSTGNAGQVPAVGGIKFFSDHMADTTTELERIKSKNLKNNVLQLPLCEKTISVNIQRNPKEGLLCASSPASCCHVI

[12] = biological target: T7, CASK (Homo sapiens, UniProt O14936)
T7 construct: purchased Eurofins DiscoverX Corporation (KINOMEscan)

[13] = biological target: PIK3CA(E542K) (Homo sapiens, UniProt P42336, E542K)
PIK3CA(E542K), sequence (P42336 whole entry E542K): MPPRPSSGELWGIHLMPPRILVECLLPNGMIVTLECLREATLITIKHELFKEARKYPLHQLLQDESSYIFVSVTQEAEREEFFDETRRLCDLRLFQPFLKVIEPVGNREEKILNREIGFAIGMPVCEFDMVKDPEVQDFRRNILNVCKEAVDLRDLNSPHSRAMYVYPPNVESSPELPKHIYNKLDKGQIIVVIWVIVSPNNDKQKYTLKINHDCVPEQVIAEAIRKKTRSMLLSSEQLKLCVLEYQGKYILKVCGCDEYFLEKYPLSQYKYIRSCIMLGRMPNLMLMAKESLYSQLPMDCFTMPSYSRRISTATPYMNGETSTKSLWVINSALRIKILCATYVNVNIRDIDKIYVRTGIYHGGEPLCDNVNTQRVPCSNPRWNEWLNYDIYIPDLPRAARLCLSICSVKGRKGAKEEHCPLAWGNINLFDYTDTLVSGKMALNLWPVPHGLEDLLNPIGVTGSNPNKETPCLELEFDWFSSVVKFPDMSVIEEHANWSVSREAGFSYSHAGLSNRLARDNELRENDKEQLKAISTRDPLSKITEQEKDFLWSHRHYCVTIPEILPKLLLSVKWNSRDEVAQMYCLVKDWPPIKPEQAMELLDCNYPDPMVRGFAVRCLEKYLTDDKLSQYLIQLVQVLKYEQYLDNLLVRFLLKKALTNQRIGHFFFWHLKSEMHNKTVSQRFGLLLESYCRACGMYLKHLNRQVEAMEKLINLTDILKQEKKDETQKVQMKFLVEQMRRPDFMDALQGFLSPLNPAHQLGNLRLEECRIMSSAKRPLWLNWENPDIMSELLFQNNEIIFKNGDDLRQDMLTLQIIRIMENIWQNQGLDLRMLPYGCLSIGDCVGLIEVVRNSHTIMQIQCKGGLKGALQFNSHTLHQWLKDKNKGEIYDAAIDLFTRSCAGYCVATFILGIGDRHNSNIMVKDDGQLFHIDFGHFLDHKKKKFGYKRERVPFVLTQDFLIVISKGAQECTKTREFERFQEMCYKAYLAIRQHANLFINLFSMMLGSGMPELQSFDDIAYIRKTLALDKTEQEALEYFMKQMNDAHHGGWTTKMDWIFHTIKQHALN

[14] = biological target: EGFR(S752-I759del) (Homo sapiens, UniProt P00533, DEL752-759)
[15] = biological target: T8, DLK (Homo sapiens, UniProt Q12852)
T8 construct: purchased Eurofins DiscoverX Corporation

[16] = biological target: T9, LKB1 (Homo sapiens, UniProt Q15831)
T9 construct: purchased Eurofins DiscoverX Corporation

[17] = biological target: T10, DAPK1 (Homo sapiens, UniProt P53355)
T10 construct: purchased Eurofins DiscoverX Corporation
T10 sequence (P53355 whole entry): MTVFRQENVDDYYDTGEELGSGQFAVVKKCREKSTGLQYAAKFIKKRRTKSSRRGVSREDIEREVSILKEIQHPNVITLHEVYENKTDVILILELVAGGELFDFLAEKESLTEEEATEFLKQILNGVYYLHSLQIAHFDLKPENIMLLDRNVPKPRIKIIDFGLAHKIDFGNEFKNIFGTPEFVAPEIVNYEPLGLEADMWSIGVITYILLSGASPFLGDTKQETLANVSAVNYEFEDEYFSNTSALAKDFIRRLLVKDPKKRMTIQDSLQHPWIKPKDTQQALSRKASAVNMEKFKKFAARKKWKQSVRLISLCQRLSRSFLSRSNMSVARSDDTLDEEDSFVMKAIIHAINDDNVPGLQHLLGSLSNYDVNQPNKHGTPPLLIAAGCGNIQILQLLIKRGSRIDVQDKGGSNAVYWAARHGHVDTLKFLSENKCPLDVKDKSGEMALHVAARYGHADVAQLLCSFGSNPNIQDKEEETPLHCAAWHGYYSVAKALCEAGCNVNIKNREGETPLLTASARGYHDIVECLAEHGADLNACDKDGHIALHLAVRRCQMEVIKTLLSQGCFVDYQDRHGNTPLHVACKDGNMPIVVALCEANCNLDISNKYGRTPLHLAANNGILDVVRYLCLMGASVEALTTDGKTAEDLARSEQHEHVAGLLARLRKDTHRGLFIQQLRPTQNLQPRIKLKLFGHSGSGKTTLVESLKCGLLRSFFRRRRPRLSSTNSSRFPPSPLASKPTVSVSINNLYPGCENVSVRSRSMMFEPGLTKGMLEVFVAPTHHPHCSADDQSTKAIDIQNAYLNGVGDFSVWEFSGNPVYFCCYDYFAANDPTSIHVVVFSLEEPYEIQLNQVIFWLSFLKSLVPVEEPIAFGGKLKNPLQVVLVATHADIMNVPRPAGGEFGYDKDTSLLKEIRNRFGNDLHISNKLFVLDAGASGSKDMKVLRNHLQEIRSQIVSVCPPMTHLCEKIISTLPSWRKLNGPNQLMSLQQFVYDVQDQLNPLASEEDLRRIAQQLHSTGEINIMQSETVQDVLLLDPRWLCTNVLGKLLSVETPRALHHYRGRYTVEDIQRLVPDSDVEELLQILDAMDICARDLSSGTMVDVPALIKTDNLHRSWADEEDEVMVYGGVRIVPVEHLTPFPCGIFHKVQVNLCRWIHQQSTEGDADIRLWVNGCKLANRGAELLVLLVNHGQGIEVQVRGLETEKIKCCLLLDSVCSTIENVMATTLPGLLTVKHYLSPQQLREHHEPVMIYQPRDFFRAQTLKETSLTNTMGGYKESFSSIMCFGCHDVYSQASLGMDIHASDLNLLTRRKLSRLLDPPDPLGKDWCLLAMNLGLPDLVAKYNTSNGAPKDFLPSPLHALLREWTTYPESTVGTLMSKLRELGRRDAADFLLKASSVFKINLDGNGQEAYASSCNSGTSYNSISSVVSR

[18] = biological target: FGFR1 (Homo sapiens, UniProt P11362)
[19] = biological target: T11, HIPK4 (Homo sapiens, UniProt Q8NE63)
T11 construct: purchased Eurofins DiscoverX Corporation

[20] = biological target: ADCK3 (Homo sapiens, UniProt Q8NI60)
[21] = biological target: T12, BMPR2 (Homo sapiens, UniProt Q13873)
T12 construct: purchased Eurofins DiscoverX Corporation (KINOMEscan)

[22] = biological target: AKT1 (Homo sapiens, UniProt P31749)
[23] = biological target: T13, BMX (Homo sapiens, UniProt P51813)
T13 construct: purchased Eurofins DiscoverX Corporation (KINOMEscan)
T13 sequence (P51813 whole entry): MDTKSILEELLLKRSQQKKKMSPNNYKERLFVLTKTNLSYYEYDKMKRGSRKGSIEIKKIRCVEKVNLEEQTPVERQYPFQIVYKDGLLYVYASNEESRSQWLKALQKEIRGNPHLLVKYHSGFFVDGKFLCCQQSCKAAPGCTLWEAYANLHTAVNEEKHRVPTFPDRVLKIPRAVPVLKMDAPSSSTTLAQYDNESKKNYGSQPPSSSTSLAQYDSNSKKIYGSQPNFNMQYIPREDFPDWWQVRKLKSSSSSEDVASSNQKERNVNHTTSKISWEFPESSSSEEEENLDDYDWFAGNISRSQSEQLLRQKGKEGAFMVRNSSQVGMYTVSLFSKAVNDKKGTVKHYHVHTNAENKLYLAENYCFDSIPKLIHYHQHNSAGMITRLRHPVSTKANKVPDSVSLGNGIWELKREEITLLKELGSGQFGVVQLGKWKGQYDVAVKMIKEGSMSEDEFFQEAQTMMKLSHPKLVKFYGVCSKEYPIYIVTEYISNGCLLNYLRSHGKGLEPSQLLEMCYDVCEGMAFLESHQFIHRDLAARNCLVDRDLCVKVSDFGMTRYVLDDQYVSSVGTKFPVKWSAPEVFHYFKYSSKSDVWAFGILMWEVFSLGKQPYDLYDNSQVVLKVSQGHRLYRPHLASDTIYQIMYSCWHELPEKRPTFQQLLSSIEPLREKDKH

[24] = biological target: T14, HUNK (Homo sapiens, UniProt P57058)
T14 construct: purchased Eurofins DiscoverX (KINOMEscan)

[25] = biological target: PRKCH (Homo sapiens, UniProt P24723)
[26] = biological target: T15, MLK3 (Homo sapiens, UniProt Q16584)
T15 construct: purchased Eurofins DiscoverX Corporation

[27] = biological target: T16, MLK2 (Homo sapiens, UniProt Q02779)
T16 construct: purchased Eurofins DiscoverX Corporation

[28] = biological target: T17, KIT-autoinhibited (Homo sapiens, UniProt P10721)
T17 construct: purchased Eurofins DiscoverX Corporation

[29] = biological target: T18, TRPM6 (Homo sapiens, UniProt Q9BX84)
T18 construct: purchased Eurofins DiscoverX Corporation

[30] = biological target: T19, MAK (Homo sapiens, UniProt P20794)
T19 construct: purchased Eurofins DiscoverX Corporation
T19 sequence (P20794 whole entry): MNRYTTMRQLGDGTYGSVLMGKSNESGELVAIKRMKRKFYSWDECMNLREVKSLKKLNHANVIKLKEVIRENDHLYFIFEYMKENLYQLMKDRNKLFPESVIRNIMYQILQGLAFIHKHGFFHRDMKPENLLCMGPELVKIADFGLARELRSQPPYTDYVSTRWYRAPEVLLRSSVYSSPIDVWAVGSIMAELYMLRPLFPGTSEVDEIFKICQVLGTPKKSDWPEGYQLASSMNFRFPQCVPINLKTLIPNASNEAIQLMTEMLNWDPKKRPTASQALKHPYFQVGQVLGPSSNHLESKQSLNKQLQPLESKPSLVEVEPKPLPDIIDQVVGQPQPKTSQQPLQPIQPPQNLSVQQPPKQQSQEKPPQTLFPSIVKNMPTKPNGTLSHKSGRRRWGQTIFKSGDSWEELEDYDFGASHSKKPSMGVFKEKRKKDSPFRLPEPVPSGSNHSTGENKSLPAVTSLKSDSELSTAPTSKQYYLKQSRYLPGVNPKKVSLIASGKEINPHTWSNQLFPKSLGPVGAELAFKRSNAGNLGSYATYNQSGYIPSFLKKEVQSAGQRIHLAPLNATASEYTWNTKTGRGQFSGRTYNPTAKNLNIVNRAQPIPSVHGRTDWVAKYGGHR

[31] = biological target: T20, CDC2L1 (Homo sapiens, UniProt P21127)
T20 construct: purchased Eurofins DiscoverX Corporation (KINOMEscan)

CLK3, sequence (P49761 whole entry): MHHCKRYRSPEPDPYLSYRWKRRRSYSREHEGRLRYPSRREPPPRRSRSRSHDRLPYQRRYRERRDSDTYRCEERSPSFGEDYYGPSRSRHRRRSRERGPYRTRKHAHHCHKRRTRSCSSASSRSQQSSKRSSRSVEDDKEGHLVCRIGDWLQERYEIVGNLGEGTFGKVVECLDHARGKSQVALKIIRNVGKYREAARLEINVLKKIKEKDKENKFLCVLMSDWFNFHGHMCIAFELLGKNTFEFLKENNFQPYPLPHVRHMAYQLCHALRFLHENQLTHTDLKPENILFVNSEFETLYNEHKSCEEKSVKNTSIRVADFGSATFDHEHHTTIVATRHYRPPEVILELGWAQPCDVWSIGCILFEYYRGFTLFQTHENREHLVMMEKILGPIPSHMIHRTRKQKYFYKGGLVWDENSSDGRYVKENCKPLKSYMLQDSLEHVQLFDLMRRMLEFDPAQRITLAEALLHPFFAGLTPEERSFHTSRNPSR

C=CC(=O)Nc1ccc(OC)c(Nc2cc(-c3[nH]c(CC)nc3-c3cccc(NC(=O)c4cccc5c4NC(=O)c4ccccc4N5)c3)ccn2)c1 [Compound 4]
POC [1]: 100% of control | POC [2]: 67% of control | POC [3]: 88% of control | POC [4]: 74% of control | POC [5]: 98% of control | POC [6]: 84% of control | POC [7]: 62% of control | POC [8]: 45% of control | POC [9]: 100% of control | POC [10]: 20% of control | POC [11]: 82% of control | POC [12]: 97% of control | POC [13]: 100% of control | POC [14]: 6% of control | POC [15]: 100% of control | POC [16]: 100% of control | POC [17]: 86% of control | POC [18]: 86% of control | POC [19]: 92% of control | POC [20]: 100% of control | POC [21]: 88% of control | POC [22]: 89% of control | POC [23]: 66% of control | POC [24]: 32% of control | POC [25]: 69% of control | POC [26]: 97% of control | POC [27]: 97% of control | POC [28]: 100% of control | POC [29]: 99% of control | POC [30]: 89% of control | POC [31]: 100% of control

From paper PMC10879502, “Linking ATP and allosteric sites to achieve superadditive binding with bivalent EGFR kinase inhibitors” (Communications Chemistry, 2024)
